Measurements: patent publication US7713994B2 (Wyeth LLC, priority 2005, dated 2010)
pIC50: −log10 of the molar value. Where two headings read alike, the source gives them in different places.

Key:
MCF-7 = experiment: Cytotoxicity assay (SRB), MCF-7; type: cell-based; conditions: Homo sapiens, MCF7, 72 h, read-out: In Vitro Cellular Activity IC50 MCF-7
In short: (§1)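 Overnight-seeded monolayers (4000–12000 cells/well by line) receive compound in 5% FBS medium at 37 °C, 7% CO2. After 3 d, or 6 d for BT474, cellular protein is fixed with cold TCA, stained with SRB and read at 540 nm against untreated wells.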

cyclin B/CDK1 enzyme = target: T1, cyclin B/CDK1 enzyme (Homo sapiens, UniProt P06493); experiment: CDK1 ELISA kinase assay (phospho-Rb ser 795 detection); type: biochemical
T1 construct: purchased New England BioLabs; host or cells: Sf9 insect cells, recombinant baculovirus
In short: (§2)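 Partially purified Sf9-expressed cyclin D1/CDK4, cyclin E/CDK2 or cyclin B/CDK1 phosphorylated plate-bound GST-Rb C-terminal fragment with 200 μM ATP at 30° C for 1 h.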

HCT-116 = experiment: Cytotoxicity assay (SRB), HCT-116; type: cell-based; conditions: Homo sapiens, HCT-116, 72 h, read-out: In Vitro Cellular Activity IC50 HCT116
In short: as §1

cyclin E/CDK2 enzyme = target: T2, cyclin E/CDK2 enzyme (Homo sapiens, UniProt P24941); experiment: CDK2 ELISA kinase assay (phospho-Rb ser 795 detection); type: biochemical
T2 construct: made in house; host or cells: Sf9 insect cells, recombinant baculovirus
In short: as §2

cyclin D1/cdk 4 enzyme = target: T3, cyclin D1/cdk 4 enzyme (Homo sapiens, UniProt P11802); experiment: CDK4 ELISA kinase assay (phospho-Rb ser 795 detection); type: biochemical
T3 construct: made in house; host or cells: Sf9 insect cells, recombinant baculovirus
In short: as §2

BT474 = experiment: Cytotoxicity assay (SRB), BT474; type: cell-based; conditions: Homo sapiens, BT-474, 144 h, read-out: In Vitro Cellular Activity IC50 BT474
In short: as §1

LoVo = experiment: Cytotoxicity assay (SRB), LoVo; type: cell-based; conditions: Homo sapiens, LoVo, 72 h, read-out: In Vitro Cellular Activity IC50 LOVO
In short: as §1

[1] = In Vitro Enzyme Assays, read-out: CDK1 IC50
[2] = In Vitro Enzyme Assays, read-out: CDK2 IC50
[3] = In Vitro Enzyme Assays, 200 μM ATP, read-out: CDK4 IC50
[4] = In Vitro Enzyme Assay, cyclin B/CDK1, read-out: CDK1 IC50
[5] = In Vitro Enzyme Assay, cyclin E/CDK2, read-out: CDK2 IC50
[6] = In Vitro Enzyme Assay, cyclin D1/cdk 4, read-out: CDK4 IC50

T3 sequence (P11802 whole entry, species assumed): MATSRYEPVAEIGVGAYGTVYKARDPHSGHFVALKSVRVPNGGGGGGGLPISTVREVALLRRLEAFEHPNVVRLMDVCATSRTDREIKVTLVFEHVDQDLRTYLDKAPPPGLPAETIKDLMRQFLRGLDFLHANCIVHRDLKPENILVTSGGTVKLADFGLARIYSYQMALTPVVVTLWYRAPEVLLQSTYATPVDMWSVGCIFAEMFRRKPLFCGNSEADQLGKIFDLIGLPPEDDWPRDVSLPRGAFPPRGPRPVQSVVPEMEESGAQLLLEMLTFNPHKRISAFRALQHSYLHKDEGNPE
T3 sequence (P24385 whole entry partner, species assumed): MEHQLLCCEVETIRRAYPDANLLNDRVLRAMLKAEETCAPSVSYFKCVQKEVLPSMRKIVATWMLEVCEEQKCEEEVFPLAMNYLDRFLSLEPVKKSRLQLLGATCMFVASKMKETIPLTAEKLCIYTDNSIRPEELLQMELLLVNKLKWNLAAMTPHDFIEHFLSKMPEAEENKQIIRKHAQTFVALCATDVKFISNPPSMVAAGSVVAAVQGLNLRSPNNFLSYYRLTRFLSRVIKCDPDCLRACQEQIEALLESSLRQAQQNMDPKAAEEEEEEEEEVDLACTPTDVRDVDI
T1 sequence (P06493 whole entry): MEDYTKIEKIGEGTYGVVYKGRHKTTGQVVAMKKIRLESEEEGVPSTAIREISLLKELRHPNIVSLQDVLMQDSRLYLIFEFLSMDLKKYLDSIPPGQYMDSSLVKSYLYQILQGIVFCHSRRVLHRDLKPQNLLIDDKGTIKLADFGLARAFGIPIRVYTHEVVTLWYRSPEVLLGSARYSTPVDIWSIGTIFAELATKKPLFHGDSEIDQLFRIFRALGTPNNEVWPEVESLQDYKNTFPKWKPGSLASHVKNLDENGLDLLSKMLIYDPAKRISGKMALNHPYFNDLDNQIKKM
T1 sequence (P14635 whole entry partner): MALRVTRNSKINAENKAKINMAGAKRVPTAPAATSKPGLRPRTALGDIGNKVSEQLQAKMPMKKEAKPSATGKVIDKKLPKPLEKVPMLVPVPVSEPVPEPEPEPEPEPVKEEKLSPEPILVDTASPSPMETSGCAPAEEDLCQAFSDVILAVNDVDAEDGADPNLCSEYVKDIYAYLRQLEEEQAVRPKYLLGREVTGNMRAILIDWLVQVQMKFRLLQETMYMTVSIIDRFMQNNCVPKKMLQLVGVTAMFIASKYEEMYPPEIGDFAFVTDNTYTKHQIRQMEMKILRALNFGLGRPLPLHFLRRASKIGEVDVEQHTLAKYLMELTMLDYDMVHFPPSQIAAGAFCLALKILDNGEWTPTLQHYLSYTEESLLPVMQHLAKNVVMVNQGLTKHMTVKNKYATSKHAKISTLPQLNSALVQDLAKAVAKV

Structure (SMILES)	pIC50 (MCF-7; MCF-7 cells, SRB, three days)	pIC50 (cyclin B/CDK1 enzyme; [1])	pIC50 (HCT-116; HCT116 cells, SRB, three days)	pIC50 (cyclin E/CDK2 enzyme; [2])	pIC50 (cyclin D1/cdk 4 enzyme; [3])	pIC50 (BT474; BT474 cells, SRB, 6 days)	melting point	pIC50 (LoVo; LoVo cells, SRB, three days)	pIC50 (MCF-7; MCF-7 cells, 3 days, SRB)	pIC50 (HCT-116; HCT116 cells, 3 days, SRB)	pIC50 (BT474; BT474 cells, 6 days, SRB)	pIC50 (LoVo; LoVo cells, 3 days, SRB)	pIC50 (MCF-7)	pIC50 (HCT-116)	pIC50 (BT474)	pIC50 (LoVo)	pIC50 (cyclin B/CDK1 enzyme; [4])	pIC50 (cyclin E/CDK2 enzyme; [5])	pIC50 (cyclin D1/cdk 4 enzyme; [6])
C[C@@H]1CN(c2c(F)cc(N/C=C3\C(=O)NC(=O)c4ccc(-c5ccsc5)cc43)cc2F)C[C@H](C)N1 [Example 383, (4Z)-4-[({4-[(3R,5S)-3,5-Dimethylpiperazin-1-yl]-3,5-difluorophenyl}amino)methylene]-6-thien-3-ylisoquinoline-1,3(2H,4H)-dione]	5.68	4.84	6.08	4.59	6.35	5.89	195 to 196 °C	5.59	–	–	–	–	–	–	–	–	–	–	–
COC1CCN(Cc2ccc(N/C=C3\C(=O)NC(=O)c4ccc(I)cc43)cc2)CC1 [Example 394, (4Z)-6-Iodo-4-[({4-[(4-methoxypiperidin-1-yl)methyl]phenyl}amino)methylene]isoquinoline-1,3(2H,4H)-dione]	–	< 4.30	–	< 4.30	6.68	–	199 to 200 °C	–	5.59	5.43	5.39	5.43	–	–	–	–	–	–	–
COC1CCN(Cc2ccc(N/C=C3\C(=O)NC(=O)c4ccc(-c5ccc(F)cc5)cc43)cc2)CC1 [Example 395, (4Z)-6-(4-Fluorophenyl)-4-[({4-[(4-methoxypiperidin-1-yl)methyl]phenyl}amino)methylene]isoquinoline-1,3(2H,4H)-dione]	–	< 4.30	–	< 4.30	6.85	–	188 to 189 °C	–	5.85	5.64	5.83	5.55	–	–	–	–	–	–	–
O=C1NC(=O)c2ccc(Br)cc2/C1=C/Nc1ccc(N2CCC(N3CCCC3)CC2)c(F)c1 [Example 405, (4Z)-6-Bromo-4-({[3-fluoro-4-(4-pyrrolidin-1-ylpiperidin-1-yl)phenyl]amino}-methylene)-isoquinoline-1,3(2H,4H)-dione]	–	< 4.30	–	< 4.30	5.74	–	204 to 205 °C	–	5.25	5.77	5.51	5.70	–	–	–	–	–	–	–
O=C1NC(=O)c2ccc(-c3ccsc3)cc2/C1=C/Nc1ccc(N2CCC(N3CCCC3)CC2)c(F)c1 [Example 406, (4Z)-4-({[3-Fluoro-4-(4-pyrrolidin-1-ylpiperidin-1-yl)phenyl]amino}methylene)-6-thien-3-ylisoquinoline-1,3(2H,4H)-dione]	–	4.50	–	4.30	7.05	–	200 to 201 °C	–	5.47	5.59	5.41	5.57	–	–	–	–	–	–	–
O=C1NC(=O)c2ccc(Br)cc2/C1=C/Nc1ccc(N2CCC(N3CCCC3)CC2)nc1 [Example 407, (4Z)-6-Bromo-4-({[6-(4-pyrrolidin-1-ylpiperidin-1-yl)pyridin-3-yl]amino}methylene)isoquinoline-1,3(2H,4H)-dione]	–	< 4.30	–	< 4.30	5.80	–	214 to 215 °C	–	5.01	5.42	4.99	5.07	–	–	–	–	–	–	–
O=C1NC(=O)c2ccc(-c3ccsc3)cc2/C1=C/Nc1ccc(N2CCC(N3CCCC3)CC2)nc1 [Example 408]	–	< 4.30	–	< 4.30	6.92	–	203 to 204 °C	–	–	–	–	–	5.29	5.60	5.62	5.59	–	–	–
CN(C)C1CCN(Cc2ccc(N/C=C3\C(=O)NC(=O)c4ccc(I)cc43)cc2)C1 (centres unmarked) [Example 422, (4Z)-4-{[(4-{[3-(Dimethylamino)pyrrolidin-1-yl]methyl}phenyl)amino]methylene}-6-iodoisoquinoline-1,3(2H,4H)-dione]	–	< 4.30	–	< 4.30	6.54	–	134 to 135 °C	–	5.25	5.70	5.43	5.42	–	–	–	–	–	–	–
CN(C)C[C@@H]1CCCN1Cc1ccc(N/C=C2\C(=O)NC(=O)c3ccc(I)cc32)cc1 [Example 423]	–	< 4.30	–	< 4.30	5.85	–	130 to 131 °C	–	5.37	5.42	5.27	5.35	–	–	–	–	–	–	–
CN(C)CCCN1CCC(c2ccc(N/C=C3\C(=O)NC(=O)c4ccc(I)cc43)cc2)CC1 [Example 425, (4Z)-4-{[(4-{1-[3-(Dimethylamino)propyl]piperidin-4-yl}phenyl)amino]methylene}-6-iodoisoquinoline-1,3(2H,4H)-dione]	–	4.35	–	4.43	6.44	–	139 to 140 °C	–	5.59	6.22	5.82	5.92	–	–	–	–	–	–	–
O=C1NC(=O)c2ccc(I)cc2/C1=C/Nc1ccc(CN2CCCCC2CO)cc1 (centres unmarked) [Example 439, (4Z)-4-{[(4-{[2-(Hydroxymethyl)piperidin-1-yl]methyl}phenyl)amino]methylene}-6-iodoisoquinoline-1,3(2H,4H)-dione]	–	< 4.30	–	< 4.30	6.07	–	205 to 206 °C	–	6.12	5.46	6.42	5.60	–	–	–	–	–	–	–
O=C1NC(=O)c2ccc(I)cc2/C1=C/Nc1ccc(CN2CCC(O)CC2)cc1 [Example 440, (4Z)-4-[({4-[(4-Hydroxypiperidin-1-yl)methyl]phenyl}amino)methylene]-6-iodoisoquinoline-1,3(2H,4H)-dione]	–	4.56	–	4.71	6.46	–	255 to 256 °C	–	5.80	5.49	5.80	5.40	–	–	–	–	–	–	–
CN1CCN(c2ccc(N/C=C3\C(=O)NC(=O)c4ccc(Br)cc43)nc2)CC1 [Example 442, (4Z)-6-Bromo-4-({[5-(4-methylpiperazin-1-yl)pyridin-2-yl]amino}methylene)isoquinoline-1,3(2H,4H)-dione]	–	4.80	–	4.60	5.48	–	191 to 192 °C	–	5.62	5.96	5.43	5.39	–	–	–	–	–	–	–
CN1CCN(c2ccc(N/C=C3\C(=O)NC(=O)c4ccc(-c5coc(C=O)c5)cc43)nc2)CC1 [Example 448, 4-[(4Z)-4-({[5-(4-Methylpiperazin-1-yl)pyridin-2-yl]amino}methylene)-1,3-dioxo-1,2,3,4-tetrahydroisoquinolin-6-yl]-2-furaldehyde]	–	5.00	–	< 4.30	7.40	–	183 to 184 °C	–	5.30	5.62	5.18	5.39	–	–	–	–	–	–	–
CN1CCCC1c1ccc(N/C=C2\C(=O)NC(=O)c3ccc(-n4cccc4)cc32)nc1 (centres unmarked) [Example 459]	–	–	–	–	–	–	186 to 196 °C (dec.)	–	4.97	4.89	4.76	5.02	–	–	–	–	< 4.30	< 4.30	5.43
CN1CCCC1c1ccc(N/C=C2\C(=O)NC(=O)c3ccc(I)cc32)nc1 (centres unmarked) [Example 460, (Z)-6-Iodo-4-((5-(1-methylpyrrolidin-2-yl)pyridin-2-ylamino)methylene)isoquinoline-1,3(2H,4H)-dione]	–	–	–	–	–	–	174 to 206 °C (dec.)	–	4.99	5.08	5.00	5.03	–	–	–	–	< 4.30	< 4.30	4.74
